In patent US10961215B2, “N-aryl and N-heteroaryl piperidine derivatives as liver X receptor beta agonists, compositions, and their use” (Merck Sharp & Dohme Corp., priority 2016, dated 2021):

What was measured:
[1] = molecular target: T1, GST tagged LXRbeta LBD (ligand binding domain) (Homo sapiens, UniProt P55055); assay: LanthaScreen TR-FRET Liver X Receptor Coactivator Assay, LXR beta-LBD (co-activator recruitment; IP and % Emax relative to T0901317); type: biochemical; conditions: for EC50: Inflection Point of co-activator recruitment, LXR beta-LBD, TR-FRET; for Emax: efficacy at max dose in relation to reference T0901317, LXR beta-LBD, read-out: LXR beta actiivty at max dose (%)
T1 construct: purchased Invitrogen pv4658.pps
T1 sequence (P55055 222-460 limits assumed): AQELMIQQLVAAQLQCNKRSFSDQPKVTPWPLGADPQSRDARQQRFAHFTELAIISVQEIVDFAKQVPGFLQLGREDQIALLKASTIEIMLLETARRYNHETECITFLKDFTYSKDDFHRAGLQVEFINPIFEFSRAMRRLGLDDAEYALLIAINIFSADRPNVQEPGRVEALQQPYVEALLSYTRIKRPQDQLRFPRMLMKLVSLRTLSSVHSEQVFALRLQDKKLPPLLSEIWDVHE
Outline: (§1)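 Agonist-induced recruitment of a fluorescein-tagged coactivator peptide to the LBD is detected via terbium anti-GST TR-FRET.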

[2] = molecular target: T2, GST tagged LXRalpha LBD (ligand binding domain) (Homo sapiens, UniProt Q13133); assay: LanthaScreen TR-FRET Liver X Receptor Coactivator Assay, LXR alpha-LBD (co-activator recruitment; IP and % Emax relative to T0901317); type: biochemical; conditions: for LXR alpha IP (nM) / EC50: Inflection Point of co-activator recruitment, LXR alpha-LBD, TR-FRET; for Emax: efficacy at max dose in relation to reference T0901317, LXR alpha-LBD, read-out: LXR alpha actiivty at max dose (%)
T2 construct: purchased Invitrogen pv4655
T2 sequence (Q13133 209-447 limits assumed): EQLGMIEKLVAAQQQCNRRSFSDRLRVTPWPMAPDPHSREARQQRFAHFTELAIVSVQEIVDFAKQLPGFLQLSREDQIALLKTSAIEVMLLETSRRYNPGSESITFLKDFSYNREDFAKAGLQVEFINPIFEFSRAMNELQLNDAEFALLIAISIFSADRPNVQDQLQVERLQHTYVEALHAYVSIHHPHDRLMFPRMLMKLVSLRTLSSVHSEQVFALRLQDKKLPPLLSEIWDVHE
Outline: as §1

SMILES | EC50 [1] | Emax [1] | LXR alpha IP (nM) [2] | Emax [2] | EC50 [2]
CC(C)=C(C(=O)N(C)CCCC1CCN(c2ccc(C(=O)N(C)C)c(Cl)n2)CC1)c1ccccc1 [Example 1-61, 2-chloro-6-(4-(3-(N,3-dimethyl-2-phenylbut-2-enamido)propyl)piperidin-1-yl)-N,N-dimethylnicotinamide] | 1380 nM | 23% | No IP | 0% | 
COc1cccc([C@@](O)(C(=O)N(C)CCCC2CCN(c3ccc(C(=O)N(C)C)c(Cl)n3)CC2)C(F)F)c1 [Example 1-53, (R)-2-chloro-6-(4-(3-(3,3-difluoro-2-hydroxy-2-(3-methoxyphenyl)-N-methylpropanamido)propyl)piperidin-1-yl)-N,N-dimethylnicotinamide] | 580 nM | 43% | No IP | 0% | 
CC(C)[C@@](O)(C(=O)N(C)CCCC1CCN(c2ccc(C(=O)N(C)C)c(Cl)n2)CC1)C(F)(F)F [Example 1-3, (R)-2-chloro-6-(4-(3-(2-hydroxy-N,3-dimethyl-2-(trifluoromethyl)butanamido)propyl)piperidin-1-yl)-N,N-dimethylnicotinamide] | 159 nM | 102% |  | 40% | 1780 nM
CCc1cccc([C@@](O)(C(=O)N(C)CCCC2CCN(c3ccc(C(=O)N(C)C)c(Cl)n3)CC2)C(F)(F)F)c1 [Example 1-28, (R)-2-chloro-6-(4-(3-(2-(3-ethylphenyl)-3,3,3-trifluoro-2-hydroxy-N-methylpropanamido)propyl)piperidin-1-yl)-N,N-dimethylnicotinamide] | 67 nM | 39% | No IP | 0% | 
COc1cccc([C@@](O)(C(=O)NCC[C@H]2CC23CCN(c2ccc(C(=O)N(C)C)c(Cl)c2)CC3)C(F)(F)F)c1 [Example 7-32, 2-chloro-N,N-dimethyl-4-((R)-1-(2-((R)-3,3,3-trifluoro-2-hydroxy-2-(3-methoxyphenyl)propanamido)ethyl)-6-azaspiro[2.5]octan-6-yl)benzamide] | 284 nM | 69% | No IP | 17% | 
COc1cccc([C@@](O)(C(=O)N(C)CC[C@H]2CC23CCN(c2ccc(C(=O)N(C)C)c(Cl)c2)CC3)C(F)(F)F)c1 [Example 7-6, 2-chloro-N,N-dimethyl-4-((R)-1-(2-((R)-3,3,3-trifluoro-2-hydroxy-2-(3-methoxyphenyl)-N-methylpropanamido)ethyl)-6-azaspiro[2.5]octan-6-yl)benzamide] | 21 nM | 76% |  | 33% | 439 nM
Cc1cccc([C@@](O)(C(=O)N(C)CCCC2CCN(c3ccc(C(=O)N(C)C)c(Cl)n3)CC2)C(F)(F)F)c1 [Example 1-15, (R)-2-chloro-N,N-dimethyl-6-(4-(3-(3,3,3-trifluoro-2-hydroxy-N-methyl-2-m-tolylpropanamido)propyl)piperidin-1-yl)nicotinamide] | 76 nM | 55% | No IP | 0% | 
CNC(=O)c1ccc(N2CCC3(CC2)CC(CCN(C)C(=O)[C@](O)(c2cccc(OC)c2)C(F)(F)F)C3)nc1Cl [Example 13-2, 2-chloro-N-methyl-6-(2-(2-((R)-3,3,3-trifluoro-2-hydroxy-2-(3-methoxyphenyl)-N-methylpropanamido)ethyl)-7-azaspiro[3.5]nonan-7-yl)nicotinamide] | 142 nM | 49% | No IP | 1% | 
COc1cccc([C@@](O)(C(=O)N(C)CC(C)CC2CCN(c3ccc(C(=O)N(C)C)c(Cl)n3)CC2)C(F)(F)F)c1 (single isomer, unassigned) [Example 3-2] | 53 nM | 81% | No IP | 0% | 
CN(C)C(=O)c1ccc(N2CCC(CCCNC(=O)[C@](O)(c3cccc(C4CC4)c3)C(F)(F)F)CC2)nc1Cl [Example 5-14, (R)-2-chloro-6-(4-(3-(2-(3-cyclopropylphenyl)-3,3,3-trifluoro-2-hydroxy-propanamido)propyl)piperidin-1-yl)-N,N-dimethylnicotinamide] | 207 nM | 44% | No IP | 0% | 
CN(C)C(=O)c1ccc(N2CCC(C)(CCCN(C)C(=O)[C@](O)(c3cccc(OC(F)(F)F)c3)C(F)(F)F)CC2)nc1Cl [Example 9-5, (R)-2-chloro-N,N-dimethyl-6-(4-methyl-4-(3-(3,3,3-trifluoro-2-hydroxy-N-methyl-2-(3-(trifluoromethoxy)phenyl)pro-panamido)propyl)piperidin-1-yl)nicotinamide] | 43 nM | 38% | No IP | 0% | 
COc1cccc([C@@](O)(C(=O)N(C)CC[C@H]2CC23CCN(c2ccc(C(=O)N(C)C(C)C)c(Cl)n2)CC3)C(F)(F)F)c1 [Example 7-17, 2-chloro-N-isopropyl-N-methyl-6-((R)-1-(2-((R)-3,3,3-trifluoro-2-hydroxy-2-(3-methoxyphenyl)-N-methylpropanamido)ethyl)-6-azaspiro[2.5]octan-6-yl)nicotinamide] | 12 nM | 59% |  | 36% | 160 nM
COc1cccc([C@@](O)(C(=O)N(C)CCCC2(C)CCN(c3ccc(C(=O)N(C)C)c(Cl)n3)CC2)C(F)(F)F)c1 [Example 9-1, (R)-2-chloro-N,N-dimethyl-6-(4-methyl-4-(3-(3,3,3-trifluoro-2-hydroxy-2-(3-methoxyphenyl)-N-methylpropanamido)propyl)piperidin-1-yl)nicotinamide] | 16 nM | 37% | No IP | 0% | 
CN(C)C(=O)c1ccc(N2CCC(CCCN(C)C(=O)C3(C(F)(F)F)CCCO3)CC2)nc1Cl (centres unmarked) [Example 1-56, 2-chloro-N,N-dimethyl-6-(4-(3-(N-methyl-2-(trifluoromethyl)tetrahydrofuran-2-carboxamido)propyl)piperidin-1-yl)nicotinamide] | 168 nM | 80% |  | 43% | 2610 nM
CN(C)C(=O)c1ccc(N2CCC(CCCN(C)C(=O)C(O)C(F)(F)F)CC2)nc1Cl (centres unmarked) [Example 1-52, 2-chloro-N,N-dimethyl-6-(4-(3-(3,3,3-trifluoro-2-hydroxy-N-methylpropanamido)propyl)piperidin-1-yl)nicotinamide] | 5040 nM | 46% | No IP | 11% | 
CN(C)C(=O)c1ccc(N2CCC(CCCN(C)C(=O)[C@@]3(c4ccccc4F)CCCO3)CC2)nc1Cl [Example 1-5, (S)-2-chloro-6-(4-(3-(2-(2-fluorophenyl)-N-methyl-tetrahydrofuran-2-carboxamido)propyl)piperidin-1-yl)-N,N-dimethylnicotinamide] | 55 nM | 82% | No IP | 6% | 
CN(C)C(=O)c1ccc(N2CCC(CCCNC(=O)C3(c4ccccc4)CCCC3)CC2)nc1Cl [Example 5-15, 2-chloro-N,N-dimethyl-6-(4-(3-(1-phenylcyclopentane-carboxamido)propyl)piperidin-1-yl)nicotinamide] | 215 nM | 83% |  | 22% | 2730 nM
CN(C)C(=O)c1ccc(N2CCC(F)(CCCN(C)C(=O)[C@](O)(c3ccccc3)C(F)(F)F)CC2)cc1Cl [Example 12-1, (R)-2-chloro-4-(4-fluoro-4-(3-(3,3,3-trifluoro-2-hydroxy-N-methyl-2-phenylpropanamido)propyl)piperidin-1-yl)-N,N-dimethylbenzamide] | 266 nM | 44% | No IP | 12% | 
COc1cccc([C@@](O)(C(=O)Nc2cccc(C3CCN(c4ccc(C(=O)N(C)C)c(Cl)n4)CC3)c2)C(F)(F)F)c1 [Example 10-4, (R)-2-chloro-N,N-dimethyl-6-(4-(3-(3,3,3-trifluoro-2-hydroxy-2-(3-methoxyphenyl)propanamido)phenyl)piperidin-1-yl)nicotinamide] | 649 nM | 49% | No IP | 0% | 
CN(C)C(=O)c1ccc(N2CCC([C@@H]3C[C@H]3CN(C)C(=O)[C@@](O)(c3ccccc3)C(F)(F)F)CC2)nc1Cl [Example 15-16, 2-chloro-N,N-dimethyl-6-(4-((1S,2R)-2-(((S)-3,3,3-trifluoro-2-hydroxy-N-methyl-2-phenylpropanamido)methyl)cyclopropyl)piperidin-1-yl)nicotinamide] | 583 nM | 58% | No IP | 0% | 
